Among the data in ChEMBL document CHEMBL4138164, “Thieno[2,3-b]pyridine derivatives are potent anti-platelet drugs, inhibiting platelet activation, aggregation and showing synergy with aspirin” (Eur J Med Chem, 2018) are inhibition and Activity values, retold here.

For data set [1], the target named is P2Y purinoceptor 12 (Homo sapiens) (UniProt Q9H244). Kind of data set: Antagonist activity at P2Y12 in human platelet rich plasma assessed as inhibition of ADP-induced platelet aggregation at 10 uM pretreated for 30 mins followed by ADP addition measured after 5 mins by light transmission aggregometric analysis. Type of data set: functional.
For data set [2] the target is unchanged. Kind of data set: Antagonist activity at P2Y12 in human platelet rich plasma assessed as inhibition of collagen-induced platelet aggregation at 10 uM pretreated for 30 mins followed by collagen addition measured after 5 mins by light transmission aggregometric analysis. In kind it is functional.
The target is the same in data set [3]. Kind of data set: Antagonist activity at P2Y12 in human whole blood assessed as inhibition of ADP-induced platelet-aggregation at 10 uM pretreated for 30 mins followed by ADP addition measured after 5 mins by FITC staining-based flow cytometric analysis. Type of data set: functional.
Data set [4] has the same target. Kind of data set: Antagonist activity at P2Y12 in human platelet rich plasma assessed as inhibition of ADP-induced CD62P expression at 10 uM pretreated for 30 mins followed by ADP addition measured after 5 mins by flow cytometric analysis. Type of data set: functional. A general note: A flow cytometer gives signals particle by particle.
Data set [5] shares this target. Kind of data set: Antagonist activity at P2Y12 in human platelet rich plasma assessed as inhibition of ADP-induced PAC1 expression at 10 uM pretreated for 30 mins followed by ADP addition measured after 5 mins by flow cytometric analysis. Type of data set: functional.
For data set [6] the target is unchanged. Kind of data set: Synergistic inhibition of P2Y12 in human platelet rich plasma assessed as inhibition of ADP-induced platelet aggregation at 10 uM pretreated for 30 mins followed by ADP addition measured after 5 mins in presence of aspirin by light transmission aggregometric analysis. In kind it is functional.
The subject of the next data set is Platelet. Kind of data set: Cytotoxicity against platelet in human platelet rich plasma at 100 uM after 48 to 72 hrs. Type of data set: cell-based.

Calls of active or inactive are those of the source. The rule behind the calls is not given here.

P2Y purinoceptor 12 (Homo sapiens), sequence (Q9H244 whole entry): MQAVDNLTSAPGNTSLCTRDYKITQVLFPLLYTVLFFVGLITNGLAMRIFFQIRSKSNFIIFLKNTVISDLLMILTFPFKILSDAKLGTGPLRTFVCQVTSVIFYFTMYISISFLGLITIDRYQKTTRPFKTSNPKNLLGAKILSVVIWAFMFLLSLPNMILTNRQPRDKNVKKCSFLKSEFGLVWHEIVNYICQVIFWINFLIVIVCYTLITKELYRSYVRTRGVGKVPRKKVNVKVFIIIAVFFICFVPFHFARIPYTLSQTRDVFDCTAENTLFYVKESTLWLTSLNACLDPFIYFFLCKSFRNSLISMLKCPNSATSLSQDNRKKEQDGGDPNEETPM

Turning to `COC(=O)[C@H](c1ccccc1Cl)N1CCc2sccc2C1`, the inhibition entry in data set [1] and in data set [3] was “Active” throughout. Also, the inhibition result in data set [2] is “inactive”.
For `Cc1c(Br)cccc1NC(=O)c1sc2nc3c(cc2c1N)CCCCCC3`, the inhibition result in data set [4], in data set [5], in data set [1], in data set [2] and in data set [3] was “Active” throughout. In addition, the inhibition entry in data set [6] is “inactive”. For the same compound, the Activity result in the data set on Platelet is recorded as “Non-Toxic”.
As to `Nc1c(C(=O)Nc2cccc(Cl)c2)sc2nc3c(cc12)C(=O)CCC3`, the inhibition entry in data set [4], in data set [5], in data set [1], in data set [2], in data set [3] and in data set [6] was “Active” each time. Further, in the data set on Platelet, the Activity result is recorded as “Non-Toxic”.
With `Cc1c(Cl)cccc1NC(=O)c1sc2nc3c(cc2c1N)CCCCC3`, the inhibition result in data set [4], in data set [5], in data set [1], in data set [2], in data set [3] and in data set [6] was “Active” throughout. In addition, the Activity result in the data set with Platelet is given as “Non-Toxic”.
Regarding `Nc1c(C(=O)Nc2ccccc2Cl)sc2nc3c(cc12)C(=O)CCC3`, the inhibition entry in data set [4], in data set [5], in data set [1], in data set [2], in data set [3] and in data set [6] was “Active” each time. In the data set with Platelet, the Activity result is “Non-Toxic”.
Consider `CC(=O)Oc1ccccc1C(=O)O`, for which the inhibition result in data set [1] was “Active”.
For the compound `Nc1c(C(=O)Nc2ccccc2)sc2nc3c(cc12)CCCCCC3`, the inhibition entry in data set [4], in data set [5], in data set [1], in data set [2], in data set [3] and in data set [6] was “Active” in each case. In addition, the Activity entry in the data set with Platelet is listed as “Non-Toxic”.
Take `COc1ccc(NC(=O)c2sc3nc4c(cc3c2N)CCCCCC4)cc1`: the inhibition result in data set [4], in data set [5], in data set [1], in data set [2] and in data set [3] was “Active” throughout. Further, the inhibition result in data set [6] was “inactive”. For the same compound, the Activity result with Platelet is listed as “Non-Toxic”.
